Measurements as given in PubChem BioAssay AID1845216 (Molecular Pharmacology Branch, DTP, NCI, 2023).
“And” between values parts separate entries of the source, which are not always exact repeats. Equal entries are not always repeated.

Tested on: SW 982 tumor spheroid viability
Assay: Anticancer human tumor SW 982 cell line growth inhibition;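 note: spheroids exposed to compound for 7 days before readout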
Details: spheroids with HUVEC and MSC; for viability, T/C: stronger effect = lower value
In short: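 Complex spheroids of malignant cells with endothelial cells and mesenchymal stem cells; agents alone or combined, from near clinical Cmax (or 10 microM if unknown) down in half-log steps, 0.25% DMSO final.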

Structure (SMILES): Cn1ncnc1[C@H]1c2n[nH]c(=O)c3cc(F)cc(c23)N[C@@H]1c1ccc(F)cc1 + CC[C@@]1(O)C(=O)OCc2c1cc1n(c2=O)Cc2cc3c(CN(C)C)c(O)ccc3nc2-1
- IC50 (curve of first compound, second compound 0.003 µM): > 3000 nM
- IC50 (curve of first compound, second compound 0.00949 µM): > 3000 nM
- IC50 (curve of first compound, second compound 0.03 µM): > 3000 nM
- IC50 (curve of first compound, second compound 0.0949 µM): 1640 nM
- IC50 (curve of first compound, second compound 0.3 µM): < 9.49 nM
- viability, T/C (second compound 0.003 µM, first compound 0.00949 µM): 93.5%
- viability, T/C (second compound 0.003 µM, first compound 0.03 µM): 83.8%
- viability, T/C (second compound 0.003 µM, first compound 0.0949 µM): 83.4%
- viability, T/C (second compound 0.003 µM, first compound 0.3 µM): 82.4%
- viability, T/C (second compound 0.003 µM, first compound 0.949 µM): 86.5%
- viability, T/C (second compound 0.003 µM, first compound 3 µM): 64.9%
- viability, T/C (second compound 0.00949 µM, first compound 0.00949 µM): 91.5%
- viability, T/C (second compound 0.00949 µM, first compound 0.03 µM): 81.9%
- viability, T/C (second compound 0.00949 µM, first compound 0.0949 µM): 82.5%
- viability, T/C (second compound 0.00949 µM, first compound 0.3 µM): 84.8%
- viability, T/C (second compound 0.00949 µM, first compound 0.949 µM): 92.1%
- viability, T/C (second compound 0.00949 µM, first compound 3 µM): 62.9%
- viability, T/C (second compound 0.03 µM, first compound 0.00949 µM): 70.7%
- viability, T/C (second compound 0.03 µM, first compound 0.03 µM): 73.7%
- viability, T/C (second compound 0.03 µM, first compound 0.0949 µM): 70.6%
- viability, T/C (second compound 0.03 µM, first compound 0.3 µM): 73.5%
- viability, T/C (second compound 0.03 µM, first compound 0.949 µM): 62%
- viability, T/C (second compound 0.03 µM, first compound 3 µM): 57.7%
- viability, T/C (second compound 0.0949 µM, first compound 0.00949 µM): 60.6%
- viability, T/C (second compound 0.0949 µM, first compound 0.03 µM): 56%
- viability, T/C (second compound 0.0949 µM, first compound 0.0949 µM): 60.9%
- viability, T/C (second compound 0.0949 µM, first compound 0.3 µM): 59.5%
- viability, T/C (second compound 0.0949 µM, first compound 0.949 µM): 58.2%
- viability, T/C (second compound 0.0949 µM, first compound 3 µM): 40.9%
- viability, T/C (second compound 0.3 µM, first compound 0.00949 µM): 43.5%
- viability, T/C (second compound 0.3 µM, first compound 0.03 µM): 45.4%
- viability, T/C (second compound 0.3 µM, first compound 0.0949 µM): 41.9%
- viability, T/C (second compound 0.3 µM, first compound 0.3 µM): 41.9%
- viability, T/C (second compound 0.3 µM, first compound 0.949 µM): 37.3%
- viability, T/C (second compound 0.3 µM, first compound 3 µM): 25.1%

Structure (SMILES): Cc1sc2c(c1C)C(c1ccc(Cl)cc1)=NC(CC(=O)Nc1ccc(O)cc1)c1nnc(C)n1-2 (configuration not stated)
- viability, T/C (compound 0.00949 µM): 102% (2×) and 124%
- viability, T/C (compound 0.03 µM): 105% and 104% and 90.7%
- viability, T/C (compound 0.0949 µM): 79.4% and 83.4% and 72.8%
- viability, T/C (compound 0.3 µM): 48.1% and 59.7% and 50.1%
- viability, T/C (compound 0.949 µM): 35.9% and 35.4% and 29.1%
- viability, T/C (compound 3 µM): 29.3% and 33.5% and 24.2%
- IC50 (curve of compound): 277 nM and 490 nM and 282 nM

Structure (SMILES): Cn1ncnc1[C@H]1c2n[nH]c(=O)c3cc(F)cc(c23)N[C@@H]1c1ccc(F)cc1 + Cn1nnc2c(C(N)=O)ncn2c1=O
- IC50 (curve of first compound, second compound 1 µM): > 3000 nM
- IC50 (curve of first compound, second compound 3.16 µM): > 3000 nM
- IC50 (curve of first compound, second compound 10 µM): > 3000 nM
- IC50 (curve of first compound, second compound 31.6 µM): 1080 nM
- IC50 (curve of first compound, second compound 100 µM): < 9.49 nM
- viability, T/C (second compound 1 µM, first compound 0.00949 µM): 90.9%
- viability, T/C (second compound 1 µM, first compound 0.03 µM): 88.5%
- viability, T/C (second compound 1 µM, first compound 0.0949 µM): 86.6%
- viability, T/C (second compound 1 µM, first compound 0.3 µM): 89.2%
- viability, T/C (second compound 1 µM, first compound 0.949 µM): 79%
- viability, T/C (second compound 1 µM, first compound 3 µM): 69.9%
- viability, T/C (second compound 3.16 µM, first compound 0.00949 µM): 89.8%
- viability, T/C (second compound 3.16 µM, first compound 0.03 µM): 62.1%
- viability, T/C (second compound 3.16 µM, first compound 0.0949 µM): 79.3%
- viability, T/C (second compound 3.16 µM, first compound 0.3 µM): 73%
- viability, T/C (second compound 3.16 µM, first compound 0.949 µM): 77.3%
- viability, T/C (second compound 3.16 µM, first compound 3 µM): 59.9%
- viability, T/C (second compound 10 µM, first compound 0.00949 µM): 70.4%
- viability, T/C (second compound 10 µM, first compound 0.03 µM): 69.5%
- viability, T/C (second compound 10 µM, first compound 0.0949 µM): 60%
- viability, T/C (second compound 10 µM, first compound 0.3 µM): 64.3%
- viability, T/C (second compound 10 µM, first compound 0.949 µM): 60%
- viability, T/C (second compound 10 µM, first compound 3 µM): 50.3%
- viability, T/C (second compound 31.6 µM, first compound 0.00949 µM): 56%
- viability, T/C (second compound 31.6 µM, first compound 0.03 µM): 55.7%
- viability, T/C (second compound 31.6 µM, first compound 0.0949 µM): 53%
- viability, T/C (second compound 31.6 µM, first compound 0.3 µM): 55.5%
- viability, T/C (second compound 31.6 µM, first compound 0.949 µM): 50.1%
- viability, T/C (second compound 31.6 µM, first compound 3 µM): 43.9%
- viability, T/C (second compound 100 µM, first compound 0.00949 µM): 44.5%
- viability, T/C (second compound 100 µM, first compound 0.03 µM): 44.9%
- viability, T/C (second compound 100 µM, first compound 0.0949 µM): 48.1%
- viability, T/C (second compound 100 µM, first compound 0.3 µM): 44%
- viability, T/C (second compound 100 µM, first compound 0.949 µM): 39.8%
- viability, T/C (second compound 100 µM, first compound 3 µM): 39.7%
